Results reported in paper PMC9542156, “Multivalent γ‐PGA‐Exendin‐4 Conjugates to Target Pancreatic β‐Cells” (Chembiochem, 2022).

Assays:
[1] = test system: GLP‐1R of Beta‐TC‐6 cells; experiment: Affinity test (cell-based competitive flow cytometric receptor binding assay); conditions: 10 nM fluorescein-labelled Ex-4, 0.5 h, 310 K, compared to Ex4-PEG-MA
Protocol: The binding ability of γ‐PGA‐Ex‐4 compounds to GLP‐1R expressed on β‐cells surface was examined in a competitive flow cytometric assay. This receptor binding assay was developed based on similar, receptor targeting studies, of Ex‐4 targeting[85] and folate targeting.[86] The relative competition capability to the target receptor, compared to Ex4‐PEG‐MA, was evaluated among γ‐PGA‐Ex‐4 conjugates at different degrees of functionalization. The obtained values were normalized with respect to the degree of functionalization of each bioconjugate, so that the comparison is not affected by the different amount of Ex‐4 molecules on each polymeric chain. GLP‐1R positive Beta‐TC‐6 cells were co‐incubated with fluorescein‐labelled Ex‐4 and the different Ex‐4 formulations, γ‐PGA‐Ex‐4‐1, γ‐PGA‐Ex‐4‐2, γ‐PGA‐Ex‐4‐3, and Ex4‐PEG‐MA or Ex‐4 as references. […]
5×10^5 cells were incubated with 10 nм fluorescein‐labelled Ex‐4 (Eurogentec) alone or together with the tested compounds at 310 K in RPMI supplemented with 10 % FBS. After 0.5 h the cells were washed with ice cold PBS and fluorescence of the cells was measured by flow cytometer (BD FACSCalibur). […] The binding ability of γ‐PGA‐Ex‐4 conjugates and peptides to the GLP‐1R positive cells was calculated based on the inhibition of the fluorescent Ex‐4 derived signal. […]

[2] = test system: dipeptidyl peptidase‐IV (DPP‐IV); conditions: natural ligand GLP-1 rapidly degraded by DPP-IV; cited from earlier work
From the text: Type 2 diabetes is an unresolved pathology, related to genetic and environmental factors, which gradually decline the pancreatic islet functionality, finally culminating in a pathological phenomenon defined as hyperglycemia.[1] Pancreatic β‐cells take on a key role in the so‐called glucose homeostasis by secreting insulin and amylin.[2] A wide range of pharmacologic treatments have been developed, but none of them is considered the ultimate solution.[3] The classic target for diabetes 2 therapies is GLP‐1R, that stimulates insulin secretion upon interaction with its natural ligand, gluca ...

| Substance | Binding / affinity towards GLP‐1R positive β‐cells (in words) [1] | time to degradation by DPP‐IV [2] [min] |
| --- | --- | --- |
| HGEGTFTSDLSKQMEEE‐AVRLFIEWLys(PEG4‐Mal)KNGGPSSGAPPP S‐NH2 [Ex‐4‐PEG‐MA, exendin‐4(Lysine27‐PEG4‐maleimide), purchased from Caslo ApS] | still capable to bind GLP‐1R |  |
| glucagon‐like peptide 1 [GLP‐1] |  | < 2 |
